Drawing on ChEMBL document CHEMBL3792292, “Development of a potent and selective FLT3 kinase inhibitor by systematic expansion of a non-selective fragment-screening hit” (Bioorg Med Chem Lett, 2016), this text covers inhibition and IC50 for three compounds.

Assay [1] addresses Epidermal growth factor receptor (Homo sapiens) (UniProt P00533). Description: Inhibition of human N-terminal GST-tagged EGFR cytoplasmic domain (669 to 1210 residues) expressed in baculovirus expression system using fluorescence labelled srctide as substrate at 50 times IC50 by electrophoretic mobility shift assay relative to control. On the technique in general: In EMSA bound probe runs differently from free probe, usually more slowly.

The target in assay [2] is T1, Tyrosine-protein kinase ITK/TSK (Homo sapiens) (UniProt Q08881).
T1 sequence (whole entry): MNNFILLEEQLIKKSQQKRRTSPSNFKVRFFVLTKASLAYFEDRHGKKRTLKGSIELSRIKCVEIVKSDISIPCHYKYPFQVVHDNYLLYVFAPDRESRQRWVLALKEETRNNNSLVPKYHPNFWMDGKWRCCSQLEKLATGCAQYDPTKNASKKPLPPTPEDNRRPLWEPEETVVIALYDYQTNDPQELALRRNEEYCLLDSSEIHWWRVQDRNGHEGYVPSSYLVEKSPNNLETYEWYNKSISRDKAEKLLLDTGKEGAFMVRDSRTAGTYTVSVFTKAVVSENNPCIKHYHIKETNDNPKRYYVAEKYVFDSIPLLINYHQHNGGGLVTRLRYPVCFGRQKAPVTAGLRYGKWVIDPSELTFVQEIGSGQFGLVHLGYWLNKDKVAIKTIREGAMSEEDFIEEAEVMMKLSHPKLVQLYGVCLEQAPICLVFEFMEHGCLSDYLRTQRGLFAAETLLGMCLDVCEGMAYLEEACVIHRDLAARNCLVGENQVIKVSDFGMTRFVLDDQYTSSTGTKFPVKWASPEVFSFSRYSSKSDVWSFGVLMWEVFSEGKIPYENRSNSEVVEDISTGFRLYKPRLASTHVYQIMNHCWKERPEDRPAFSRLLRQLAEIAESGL
Description: Inhibition of full length human N-terminal GST-tagged ITK (2 to 620 residues) expressed in baculovirus expression system using fluorescence labelled srctide as substrate at 50 times IC50 by electrophoretic mobility shift assay relative to control.

For assay [3], the target named is Angiopoietin-1 receptor (Homo sapiens) (UniProt Q02763). The assay can be described thus: Inhibition of human N-terminal GST-tagged TIE2 receptor cytoplasmic domain (771 to 1124 residues) expressed in baculovirus expression system using fluorescence labelled Blk/Lyntide as substrate at 50 times IC50 by electrophoretic mobility shift assay relative to control.
Chain of Angiopoietin-1 receptor (Homo sapiens) (Q02763 whole entry, the tested form may be a part): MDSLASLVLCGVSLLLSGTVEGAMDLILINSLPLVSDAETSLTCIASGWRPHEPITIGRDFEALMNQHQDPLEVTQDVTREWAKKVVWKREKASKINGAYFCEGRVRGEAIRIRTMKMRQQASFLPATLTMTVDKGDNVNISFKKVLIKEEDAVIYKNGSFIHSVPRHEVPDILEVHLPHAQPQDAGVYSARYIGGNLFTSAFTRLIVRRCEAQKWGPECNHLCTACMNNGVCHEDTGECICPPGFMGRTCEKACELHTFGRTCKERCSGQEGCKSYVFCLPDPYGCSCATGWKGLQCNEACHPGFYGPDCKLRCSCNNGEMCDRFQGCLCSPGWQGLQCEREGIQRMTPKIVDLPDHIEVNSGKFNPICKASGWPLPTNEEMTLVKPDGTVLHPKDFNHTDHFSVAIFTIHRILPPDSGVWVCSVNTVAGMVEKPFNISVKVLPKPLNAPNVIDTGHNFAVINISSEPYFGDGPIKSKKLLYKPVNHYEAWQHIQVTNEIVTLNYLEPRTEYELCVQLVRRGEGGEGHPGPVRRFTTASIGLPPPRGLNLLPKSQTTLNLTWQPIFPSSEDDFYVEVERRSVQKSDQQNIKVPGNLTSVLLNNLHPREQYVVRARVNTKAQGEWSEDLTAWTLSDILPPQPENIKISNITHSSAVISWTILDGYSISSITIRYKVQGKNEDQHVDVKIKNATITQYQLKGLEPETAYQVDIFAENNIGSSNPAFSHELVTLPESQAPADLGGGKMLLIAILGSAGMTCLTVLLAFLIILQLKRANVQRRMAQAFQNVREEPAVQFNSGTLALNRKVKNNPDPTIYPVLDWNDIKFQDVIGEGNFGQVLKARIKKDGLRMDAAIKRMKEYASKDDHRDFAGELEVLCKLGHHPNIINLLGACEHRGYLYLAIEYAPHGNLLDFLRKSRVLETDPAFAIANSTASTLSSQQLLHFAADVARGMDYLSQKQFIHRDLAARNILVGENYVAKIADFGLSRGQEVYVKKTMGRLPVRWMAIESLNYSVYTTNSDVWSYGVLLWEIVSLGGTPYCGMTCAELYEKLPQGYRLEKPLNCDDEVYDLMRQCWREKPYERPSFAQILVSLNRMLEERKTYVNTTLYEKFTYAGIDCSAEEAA
The target of assay [4] is T2, Interleukin-1 receptor-associated kinase 4 (Homo sapiens) (UniProt Q9NWZ3).
T2 sequence (whole entry): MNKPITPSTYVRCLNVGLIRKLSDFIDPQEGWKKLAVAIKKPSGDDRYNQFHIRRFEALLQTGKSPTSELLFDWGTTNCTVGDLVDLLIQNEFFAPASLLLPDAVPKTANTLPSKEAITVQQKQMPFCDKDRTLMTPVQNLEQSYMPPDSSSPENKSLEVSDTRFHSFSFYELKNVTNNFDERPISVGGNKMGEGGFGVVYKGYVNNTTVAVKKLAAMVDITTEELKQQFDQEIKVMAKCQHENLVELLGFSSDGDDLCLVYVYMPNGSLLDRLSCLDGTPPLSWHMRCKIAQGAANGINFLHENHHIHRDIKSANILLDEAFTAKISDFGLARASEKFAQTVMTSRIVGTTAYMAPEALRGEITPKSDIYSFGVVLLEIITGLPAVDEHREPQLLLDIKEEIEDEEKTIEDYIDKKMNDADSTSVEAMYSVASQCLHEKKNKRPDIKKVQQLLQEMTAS
The assay can be described thus: Inhibition of full length human N-terminal GST-tagged IRAK4 (1 to 460 residues) expressed in baculovirus expression system using fluorescence labelled IRAK1 peptide substrate at 50 times IC50 by electrophoretic mobility shift assay relative to control.

The target of assay [5] is cAMP-dependent protein kinase catalytic subunit alpha (Homo sapiens) (UniProt P17612). The assay can be described thus: Inhibition of full length human N-terminal GST-tagged PKACalpha (1 to 351 residues) expressed in baculovirus expression system using fluorescence labelled kemptide as substrate at 50 times IC50 by electrophoretic mobility shift assay relative to control.

For assay [6], the target named is MAP kinase-activated protein kinase 2 (Homo sapiens) (UniProt P49137). The assay can be described thus: Inhibition of full length human N-terminal GST-tagged MAPKAPK2 (1 to 400 residues) expressed in baculovirus expression system coexpressing human His-tagged p38beta (1 to 364 residues)/MAP2K6 (1 to 334 residues) using fluorescence labelled GS peptide substrate at 50 times IC50 by electrophoretic mobility shift assay relative to control.
Chain of MAP kinase-activated protein kinase 2 (Homo sapiens) (P49137 whole entry, looked up, the tested form may be a part): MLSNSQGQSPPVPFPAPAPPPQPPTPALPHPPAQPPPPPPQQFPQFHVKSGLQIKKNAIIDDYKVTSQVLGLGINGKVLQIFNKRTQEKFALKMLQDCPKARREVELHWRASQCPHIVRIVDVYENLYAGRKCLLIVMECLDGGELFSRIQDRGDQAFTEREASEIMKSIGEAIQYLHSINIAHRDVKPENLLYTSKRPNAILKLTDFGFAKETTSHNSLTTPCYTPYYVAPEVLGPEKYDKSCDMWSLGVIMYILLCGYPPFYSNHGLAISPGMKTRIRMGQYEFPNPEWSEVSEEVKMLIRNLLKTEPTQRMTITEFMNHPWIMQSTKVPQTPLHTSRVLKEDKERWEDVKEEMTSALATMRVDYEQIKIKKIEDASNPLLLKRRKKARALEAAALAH

Assay [7] deals with T3, Receptor-type tyrosine-protein kinase FLT3 (Homo sapiens, UniProt P36888).
T3 sequence (P36888 whole entry): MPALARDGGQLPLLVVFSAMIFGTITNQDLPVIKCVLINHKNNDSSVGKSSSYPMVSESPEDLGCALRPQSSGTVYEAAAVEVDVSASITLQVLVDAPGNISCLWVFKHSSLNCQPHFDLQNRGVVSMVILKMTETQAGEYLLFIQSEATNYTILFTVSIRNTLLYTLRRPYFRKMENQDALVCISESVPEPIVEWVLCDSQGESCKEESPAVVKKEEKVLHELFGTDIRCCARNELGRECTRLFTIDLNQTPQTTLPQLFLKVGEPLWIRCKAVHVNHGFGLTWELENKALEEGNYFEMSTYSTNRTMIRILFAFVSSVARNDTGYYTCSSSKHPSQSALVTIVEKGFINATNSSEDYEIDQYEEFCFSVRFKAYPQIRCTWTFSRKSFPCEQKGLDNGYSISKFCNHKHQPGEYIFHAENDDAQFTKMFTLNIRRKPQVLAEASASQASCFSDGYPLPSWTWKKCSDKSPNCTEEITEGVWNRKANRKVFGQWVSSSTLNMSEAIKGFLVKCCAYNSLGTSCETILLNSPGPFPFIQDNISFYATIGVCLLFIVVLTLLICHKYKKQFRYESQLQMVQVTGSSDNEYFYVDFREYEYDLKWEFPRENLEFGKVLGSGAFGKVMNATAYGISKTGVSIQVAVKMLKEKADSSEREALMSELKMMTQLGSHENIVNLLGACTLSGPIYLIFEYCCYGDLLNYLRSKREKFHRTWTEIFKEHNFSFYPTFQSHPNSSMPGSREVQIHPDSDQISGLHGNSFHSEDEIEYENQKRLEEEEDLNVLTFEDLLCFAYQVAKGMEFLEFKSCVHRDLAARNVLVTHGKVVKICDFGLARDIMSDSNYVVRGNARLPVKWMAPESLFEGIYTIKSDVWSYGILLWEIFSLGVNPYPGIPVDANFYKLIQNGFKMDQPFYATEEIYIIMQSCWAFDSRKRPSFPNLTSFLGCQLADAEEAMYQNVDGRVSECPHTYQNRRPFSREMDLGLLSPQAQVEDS
The assay can be described thus: Inhibition of human N-terminal GST-tagged FLT3 cytoplasmic domain (564 to 993 residues) expressed in baculovirus expression system using fluorescence labelled srctide as substrate by mobility shift assay in presence of ATP.

Chain of Epidermal growth factor receptor (Homo sapiens) (P00533 whole entry, the tested form may be a part): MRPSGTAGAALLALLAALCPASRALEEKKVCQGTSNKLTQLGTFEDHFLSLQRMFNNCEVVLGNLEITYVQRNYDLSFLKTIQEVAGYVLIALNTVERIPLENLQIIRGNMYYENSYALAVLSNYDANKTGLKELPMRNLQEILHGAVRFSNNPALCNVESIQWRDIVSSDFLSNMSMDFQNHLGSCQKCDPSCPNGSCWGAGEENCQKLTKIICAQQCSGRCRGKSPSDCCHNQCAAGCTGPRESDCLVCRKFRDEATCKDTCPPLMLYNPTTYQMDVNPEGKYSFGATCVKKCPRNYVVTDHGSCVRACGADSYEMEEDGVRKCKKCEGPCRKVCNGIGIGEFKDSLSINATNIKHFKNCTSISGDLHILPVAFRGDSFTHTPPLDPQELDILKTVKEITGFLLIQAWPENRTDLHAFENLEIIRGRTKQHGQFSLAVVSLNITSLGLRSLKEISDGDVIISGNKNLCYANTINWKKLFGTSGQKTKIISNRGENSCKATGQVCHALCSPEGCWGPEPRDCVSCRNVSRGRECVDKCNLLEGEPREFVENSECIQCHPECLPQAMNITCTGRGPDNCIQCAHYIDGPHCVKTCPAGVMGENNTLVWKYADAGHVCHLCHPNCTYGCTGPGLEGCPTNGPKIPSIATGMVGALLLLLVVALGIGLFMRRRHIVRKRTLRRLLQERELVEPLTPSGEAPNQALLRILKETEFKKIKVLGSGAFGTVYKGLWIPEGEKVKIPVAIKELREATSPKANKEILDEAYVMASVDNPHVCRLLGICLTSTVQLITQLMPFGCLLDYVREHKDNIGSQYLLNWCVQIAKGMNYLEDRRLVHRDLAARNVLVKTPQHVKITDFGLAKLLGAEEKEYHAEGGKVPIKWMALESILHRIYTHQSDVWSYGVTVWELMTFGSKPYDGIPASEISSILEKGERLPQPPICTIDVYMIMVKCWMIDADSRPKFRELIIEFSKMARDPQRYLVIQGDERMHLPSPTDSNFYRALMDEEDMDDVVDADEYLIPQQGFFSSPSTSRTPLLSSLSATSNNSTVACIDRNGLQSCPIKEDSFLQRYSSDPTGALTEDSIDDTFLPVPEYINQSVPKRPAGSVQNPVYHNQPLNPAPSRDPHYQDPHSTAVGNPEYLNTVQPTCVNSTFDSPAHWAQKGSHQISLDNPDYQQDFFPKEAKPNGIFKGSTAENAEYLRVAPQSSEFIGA

Broadly, the inhibition is the change of the read-out against control, counted positive when it falls. For orientation: IC50 means the concentration at which inhibition is half-maximal. Take `O=C(Nc1ccc(CN2CCN(c3ccccc3)CC2)cc1)c1n[nH]c2ccccc12`: the inhibition in assay [1] was 1.7%; in assay [2], 37.4%; in assay [3] it was -2.5%; in assay [4], -1.9%; in assay [5], -1.4%; in assay [6] it was 9.7%. In addition, the IC50 in assay [7] came to 9 nM.

For `O=C(Nc1ccc(C(=O)N2CCN(c3ccccc3)CC2)cc1)c1n[nH]c2ccccc12`, the inhibition is 0.1% in assay [1]; 50.8% in assay [2]; -2% in assay [3]; 2.6% in assay [4]; 2.7% in assay [5]; -7.5% in assay [6]. For the same compound, in assay [7], the IC50 stood at 23 nM.

With `O=C(Nc1ccccc1)c1n[nH]c2ccccc12`, the inhibition amounted to 9.1% in assay [1]; 79.7% in assay [2]; 3% in assay [3]; 19.7% in assay [4]; 3.1% in assay [5]; 5.1% in assay [6]. The IC50 in assay [7] amounted to 350 nM.
